This note sets out measurements from ChEMBL document CHEMBL5126542, “Toll-like receptor 4 (TLR4) inhibitors: Current research and prospective” (Eur J Med Chem, 2022).

Series [1] is described as follows: Cytotoxicity against HEK293 cells assessed as cell survival at 10 uM incubated for 16 to 24 hrs by MTT method. The format is toxicity, cell-based. To be noted: human, time 16-24 hrs, read-out: Activity. For orientation: Tetrazolium dyes change colour on reduction, which living cells bring about.
Series [2] deals with T1, Toll-like receptor 4 (Homo sapiens, UniProt O00206). Description: Inhibition of TLR4 in HEK293 cells assessed as reduction in LPS-stimulated NF-kappaB activation at 10 uM incubated for 16 to 24 hrs by SEAP reporter gene assay relative to control. To be noted: time 16-24 hrs. The format is cell-based.
Series [3] is described as follows: Inhibition of LPS-induced NO production in mouse BV-2 microglia cells incubated for 24 hrs by 2,3-diaminonaphthalene assay. The note with it: BV-2, 24 h. The format is functional, cell-based.
Series [4] concerns RAW264.7. Description: Antiinflammatory activity in mouse RAW264.7 cells assessed as decrease in LPS-induced NO secretion preincubated for 1 hr followed by LPS stimulation and measured after 24 hrs by Griess reagent based assay. The format is functional, cell-based. Background: Nitrite, measured by Griess reagent, commonly stands in for NO production.
Series [5] concerns the target T1, Toll-like receptor 4. Description: Inhibition of LPS-stimulated TLR4 activation in HEK-Blue-hTLR4 cells assessed as reduction in SEAP release preincubated for 15 mins followed by LPS stimulation and measured after 16 hrs by microplate reader assay. The format is cell-based.
Series [6] addresses T1, Toll-like receptor 4. Description: Inhibition of human TLR4 expressed in HEK293-Blue hTLR4 cells assessed as SEAP expression. The format is cell-based, HEK-Blue hTLR4.
The subject of the next series is HEK293T. Nature of the series: Inhibition of LPS-stimulated human TLR4/MD2 expressed in HEK293T cells assessed as reduction in NF-kappaB activation preincubated for 1 hr followed by LPS stimulation for 8 hrs by luciferase reporter gene assay. The note with it: time 9.0 hrs. The format is cell-based. (A reporter such as luciferase makes a cellular process visible.)

Series [7] has as its target T1, Toll-like receptor 4. Description: Binding affinity to TLR4 in human THP-1 monocytes after 48 hrs by ELISA. The format is cell-based.
Series [8] is described as follows: Inhibition of HMGB1-induced TLR4 protein expression in mouse primary microglia preincubated for 12 hrs followed by HMGB1 stimulation for 30 mins by Western blot analysis. The format is functional. The note with it: time 12.5 hrs.
The nature of series [9]: Inhibition of LPS-stimulated NO production in mouse RAW264.7 cells at 10 nM incubated for overnight by 2,3-diaminonaphthalene assay relative to control. The format is functional.
In series [10] the test system is RAW264.7. Description: Antiinflammatory activity in mouse RAW264.7 cells assessed as decrease in LPS-induced IL-1beta secretion preincubated for 1 hr followed by LPS stimulation and measured after 24 hrs by ELISA. The format is functional, cell-based.
Series [11] deals with RAW264.7. Nature of the series: Antiinflammatory activity in mouse RAW264.7 cells assessed as decrease in LPS-induced TNF-alpha secretion preincubated for 1 hr followed by LPS stimulation and measured after 24 hrs by ELISA. The format is functional, cell-based.
Series [12] is described as follows: Inhibition of TLR4 expression in human monocytes. The note with it: Monocyte. The format is functional, cell-based.
Series [13] has as its system Liver. Description: Inhibition of CIS-induced TLR4 protein expression in rat hepatic tissue by Western blot analysis. The format is functional.
The test system of series [14] is Liver. Description: Inhibition of CIS-induced NF-kappaBp53 mRNA expression in rat hepatic tissue by SYBR-green dye based RT-PCR analysis. The format is functional.
Series [15] deals with Liver. Nature of the series: Inhibition of CIS-induced MyD88 mRNA expression in rat hepatic tissue by SYBR-green dye based RT-PCR analysis. The format is functional.
Series [16] relates to Liver. Nature of the series: Inhibition of CIS-induced TLR4 mRNA expression in rat hepatic tissue by SYBR-green dye based RT-PCR analysis. The format is functional.
The subject of the next series is HEK293. Description: Cytotoxicity against HEK293 cells assessed as cell survival at 20 uM incubated for 16 to 24 hrs by MTT method. To be noted: Homo sapiens, time 16-24 hrs, read-out: Activity. The format is functional.
For series [17], the target named is T1, Toll-like receptor 4. Description: Inhibition of TLR4 in HEK293 cells assessed as reduction in LPS-stimulated NF-kappaB activation at 20 uM incubated for 16 to 24 hrs by SEAP reporter gene assay relative to control. The format is cell-based. The note with it: time 16-24 hrs.

One may read the inhibition as the share of the control response that was lost under treatment. Usually pIC50 stands for the negative decadic logarithm of the IC50, by convention in mol/L. What is called MIC is the lowest concentration that inhibits growth of the organism.

pIC50: −log10 of the molar value. Converted amounts (≈) assume the structure as drawn. A value given as a limit tells only on which side of the number the result lay.

T1 sequence (O00206 whole entry): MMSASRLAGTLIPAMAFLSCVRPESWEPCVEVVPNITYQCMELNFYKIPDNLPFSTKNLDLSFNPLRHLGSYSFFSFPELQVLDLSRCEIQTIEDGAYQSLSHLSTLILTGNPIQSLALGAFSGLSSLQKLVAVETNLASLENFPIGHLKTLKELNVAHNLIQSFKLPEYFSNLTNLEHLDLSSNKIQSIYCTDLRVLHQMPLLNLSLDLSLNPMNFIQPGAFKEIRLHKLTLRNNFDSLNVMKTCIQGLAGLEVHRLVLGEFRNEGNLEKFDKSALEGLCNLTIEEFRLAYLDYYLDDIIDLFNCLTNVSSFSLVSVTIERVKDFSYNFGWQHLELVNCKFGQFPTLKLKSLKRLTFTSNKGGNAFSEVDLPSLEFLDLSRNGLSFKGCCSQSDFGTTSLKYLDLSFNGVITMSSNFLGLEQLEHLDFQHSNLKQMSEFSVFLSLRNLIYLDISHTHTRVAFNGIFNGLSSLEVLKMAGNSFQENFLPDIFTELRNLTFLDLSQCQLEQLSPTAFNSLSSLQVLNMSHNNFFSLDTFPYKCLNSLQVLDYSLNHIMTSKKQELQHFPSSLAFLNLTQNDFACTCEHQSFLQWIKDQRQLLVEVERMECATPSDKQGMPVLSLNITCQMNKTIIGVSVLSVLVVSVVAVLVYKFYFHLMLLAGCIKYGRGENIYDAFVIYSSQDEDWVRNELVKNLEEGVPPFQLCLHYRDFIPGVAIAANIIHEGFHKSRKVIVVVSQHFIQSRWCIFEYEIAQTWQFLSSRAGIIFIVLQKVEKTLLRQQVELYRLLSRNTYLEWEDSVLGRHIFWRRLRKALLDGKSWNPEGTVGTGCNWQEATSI

With `C=CC(=O)N(c1ccc(F)cc1Cl)S(=O)(=O)N1CCCCC1C(=O)OC` (stereo not drawn), in series [1], the viability at 10 µM stood at 92.2%. For the same compound, at Toll-like receptor 4 [2], the inhibition came to 100%. Take `O=C1CC[C@@]2(O)[C@H]3Cc4ccc(O)c5c4[C@@]2(CCN3CC2CC2)[C@H]1O5` [NALTREXONE]: the pIC50 in series [3] is 3.98. Turning to `COc1ccc(C(C)=O)c(Oc2ccc(NC(=O)/C=C/c3cc(OC)c(OC)c(OC)c3)cc2)c1`, in the series with RAW264.7 [4], the pIC50 was 5.16. With `CCCCC/C=C\C/C=C\CCCCCCC(=O)N[C@H]1[C@H](OC(=O)CCC(=O)O)O[C@H](CO)[C@@H](OC(=O)CCC(=O)O)[C@@H]1OC(=O)CCCCCCCCCCCCC`, the pIC50 at Toll-like receptor 4 [5] was 5.18. Same read-out and setting: under `CCCCCCCCC/C=C\CCCCCCC(=O)N[C@H]1[C@H](OC(=O)CCC(=O)O)O[C@H](CO)[C@@H](OC(=O)CCC(=O)O)[C@@H]1OC(=O)CCCCCCCCCCCCC` stands 5.57. For `N/C(=N\c1ncc(C(=O)c2cc(Cl)ccc2O)cn1)Nc1ccc(F)cc1`, at Toll-like receptor 4 [6], the pIC50 was 4.40. Consider `O=C(/C=C/c1ccc(O)c(O)c1)OCCc1ccccc1`, for which the MIC in the series with HEK293T stood at 1000 nM (≈ 0.284 µg/mL).

Turning to `CC(=O)N[C@H]1[C@H](OC2CCCCC2)O[C@H](CO)[C@@H](O[C@@H]2O[C@H](CO)[C@@H](O[C@@H]3O[C@H](CO)[C@@H](O[C@@H]4O[C@H](CO)[C@@H](O[C@@H]5O[C@H](CO)[C@@H](O[C@@H]6O[C@H](CO)[C@@H](O)[C@H](O)[C@H]6NC(C)=O)[C@H](O)[C@H]5NC(C)=O)[C@H](O)[C@H]4NC(C)=O)[C@H](O)[C@H]3NC(C)=O)[C@H](O)[C@H]2NC(C)=O)[C@@H]1O`, the pIC50 at Toll-like receptor 4 [7] is 6.82. Turning to `CCCCCCCC/C=C\CCCCCCC(=O)N[C@H]1[C@H](OC(=O)CCC(=O)O)O[C@H](CO)[C@@H](OC(=O)CCC(=O)O)[C@@H]1OC(=O)CCCCCC/C=C\CCCCCCCC`, the negative logarithm of the IC50 (pIC50) at Toll-like receptor 4 [5] is 5.46. As for `COc1ccc(C(=O)c2cnc(/N=C(\N)Nc3ccc(F)cc3)nc2)c(O)c1`, the pIC50 on Toll-like receptor 4 [6] was 4.74. Regarding `C=CC(=O)N(c1ccc(F)cc1Cl)S(=O)(=O)c1ccccc1C(=O)OC`, the viability at 10 µM in series [1] amounted to 88.5%. The inhibition at Toll-like receptor 4 [2] was 100%.

For the compound `CCCCC/C=C\C/C=C\CCCCCCC(=O)N[C@H]1[C@H](OC(=O)CCC(=O)O)O[C@H](CO)[C@@H](OC(=O)CCC(=O)O)[C@@H]1OC(=O)CCCCCC/C=C\C/C=C\CCCCC`, on Toll-like receptor 4 [5], the pIC50 is 5.36. On to `COc1ccc(C[C@H]2COC(=O)[C@@H]2Cc2ccc(O[C@@H]3O[C@H](CO)[C@@H](O)[C@H](O)[C@H]3O)c(OC)c2)cc1OC` [ARCTIIN], for which the minimal inhibitory concentration (MIC) in [8] was at most 50 µM. Regarding `CCOC(=O)C1=C[C@@H](O)CC[C@H]1S(=O)(=O)Cc1ccc(F)cc1Cl`, the inhibition at 0.01 µM in [9] came out at 98%. `O=S(=O)(Nc1ccc(C(F)(F)F)cc1)c1cccc2cccnc12`: the values for the negative-log IC50 (pIC50) in the series with RAW264.7 [4], in the series on RAW264.7 [10] and in the series on RAW264.7 [11] were 5.58, 4.90 and 5.01, respectively. Turning to `CC(=O)N[C@H]1[C@H](Oc2ccc([N+](=O)[O-])cc2)O[C@H](CO)[C@@H](O)[C@@H]1O`, the pIC50 in series [12] is 7.38.

Turning to `CC(/C=C/C=C(\C)C(=O)O[C@@H]1O[C@H](CO[C@@H]2O[C@H](CO)[C@@H](O)[C@H](O)[C@H]2O)[C@@H](O)[C@H](O)[C@H]1O)=C\C=C\C=C(C)\C=C\C=C(/C)C(=O)O[C@@H]1O[C@H](CO[C@@H]2O[C@H](CO)[C@@H](O)[C@H](O)[C@H]2O)[C@@H](O)[C@H](O)[C@H]1O` [CROCIN], the “inhibition (INH)” value in the series with Liver [13] worked out at 53.1%; in the series with Liver [14] it was 66.2%; with Liver [15] it was 53.2%; in the series on Liver [16], 57.7%. Turning to `CC(C)Nc1ccc(N2CC[C@]34CCCC[C@H]3[C@H]2Cc2ccc(O)cc24)cc1`, the viability at 20 µM in the series with HEK293 amounted to 89.9%. Moreover, the inhibition on Toll-like receptor 4 [17] was found to be 99.8%. `CCCCCCCCCCCCCC(=O)N[C@H]1[C@H](OC(=O)CCC(=O)O)O[C@H](CO)[C@@H](OC(=O)CCC(=O)O)[C@@H]1OC(=O)CCCCCCCCCCCCC`: on Toll-like receptor 4 [5], the pIC50 is 5.23. For `COc1ccc(N/C(N)=N/c2ncc(C(=O)c3ccccc3O)cn2)cc1`, the pIC50 on Toll-like receptor 4 [6] is 4.57.
